Measurements as given in patent publication US10035792B2, “Resorcinol derivative as HSP90 inhibitor” (priority 2015, dated 2018).
pEC50, pIC50: −log10 of the molar value.

Assays:
[1] = biological target: HSP90α (Homo sapiens (Human), UniProt P07900); test: Fluorescence polarization (FP) HSP90-alpha target binding assay; details: fluorescence polarization; read-out: Target binding ability HSP90α FP IC50
From the text: In the present invention, the method of fluorescence polarization (FP) was used to establish the screening platform for HSP90-alpha inhibitors. The principle based on is to calculate fluorescence polarization values in horizontal and vertical directions by detecting molecular weight changes before and after interaction of fluorescent labeled small molecules with other molecules, in use for correlation analysis. If binding equilibria between the fluorescent labeled small molecule and the macromolecule is established, it moves slowly when excited, and the fluorescence polarization values measured will increase. If the fluorescent labeled small molecule binding to the macromolecule is replaced with other ligands, its rotational or inversional speed in free state will become faster, the emitted light would be depolarized with respect to the exciting light plane, and thus the polarized light value measured will decrease, so as to calculate the polarization value of the sample (the unit of polarization value is mP).
The fluorescent labeled small molecule used in the present invention was VER-00051001 (synthesized by reference to the synthetic method described in JMC, 2008, 51, 196-218). The reaction was carried out in a 384-well black plate, using the reaction hydrophobic protein HFB buffer: 100 mM Tris.Cl pH 7.4, 20 mM KCl, 6 mM MgCl2, 5 μg/mL BSA, 25 nM full-length Hsp90U, 10 nM VER-51001. The volume of the reaction system was […], containing 5 nM GM-BODIPY (geldanamycin), 30 nM HSP90 and the test small molecular compound or DMSO (dimethyl sulfoxide), wherein the DMSO content was 2% o. Additional two group wells were established, wherein the wells only added with HFB buffer were used as blank controls, and the wells further added with 5 nM GM-BODIPY were used as negative controls. The reaction was carried out at 4° C. for 12-16 hours. The mP value was measured by Biotek microplate reader at 485 nm of excitation wavelength and 535 nm of emission wavelength. The inhibition rate was calculated using the following equation: (Compound-free mP−Compound mP)/(Compound-free mP−negative control mP)×100%

[2] = system: human lung cancer cell line A549; test: Tumor cell growth inhibition, SRB staining, A549; assay type: cell-based; details: A549, 72 h
Description: The growth inhibition assay of tumor cells was detected by sulforhodamine B (SRB) staining method. The specific steps were as follows: inoculating human colon cancer cell line HCT116 and human lung cancer cell line A549 (purchased from American Type Culture Collection, ATCC) at the logarithmic growth phase into a 96-well micro culture plate at an appropriate concentration of 4000 cells/well, 100 μL for each well; after culturing overnight, adding with the compound at different concentrations (100, 10, 1, 0.1, 0.01 μM) to react for 72 h, wherein triplicate wells were set up for each concentration, and solvent control wells with the corresponding concentration and zero wells without cells were also set up. After the completion of the reaction, the culture medium was removed from the adherent cells, the later was added with 10% (w/v) trichloroacetic acid (100 μL/well) at 4° C. to fix for 1 h, and then washed five times with distilled water. After drying at room temperature, 100 μL of SRB solution (4 mg/mL, dissolved in 1% glacial acetic acid) was added into each well, followed by incubation and staining for 15 min at room temperature. The uncombined SRB was removed by washing five times with 1% glacial acetic acid. After drying at room temperature, 100 μL of 10 mM Tris solution was added into each well, and the optical density (OD) at 515 nm was measured by a […] microplate reader. The inhibition rate of the drug to tumor cell growth was calculated according to the following equation: Inhibition rate (%)=(OD of control well-OD of drug well)/OD of control well×100%. The experiment was repeated twice.

Row | SMILES | pIC50 [1] | pEC50 [2]
1 | CCNC(=O)c1onc(-c2cc(C(C)C)c(O)cc2O)c1-c1ccc2c(c1)CCNCC2 [Example 28, 3-(2,4-dihydroxyl-5-isopropylphenyl)-N-ethyl-4-(2,3,4,5-tetrahydro-1H-3-benzazepin-7-yl) isoxazole-5-carboxamide] | > 7.70 | > 7.70
2 | CCNC(=O)c1onc(-c2cc(C(C)C)c(O)cc2O)c1-c1ccc2cnccc2c1 [Example 29, 3-(2,4-dihydroxyl-5-isopropylphenyl)-N-ethyl-4-(isoquinolin-6-yl)isoxazole-5-carboxamide] | > 7.70 | 7.00 to 7.70
3 | CCNC(=O)c1noc(-c2cc(Br)c(O)cc2O)c1-c1ccc2c(c1)CCN(C)C2 [Example 30, 5-(2,4-dihydroxyl-5-bromo-phenyl)-N-ethyl-4-(2-methyl-1,2,3,4-tetrahydroisoquinolin-6-yl)isoxazole-3-carboxamide] | 7.00 to 7.70 | < 7.00
4 | CCNC(=O)c1noc(-c2cc(Cl)c(O)cc2O)c1-c1ccc2c(c1)CCN(C)C2 [Example 31, 5-(2,4-dihydroxyl-5-chloro-phenyl)-N-ethyl-4-(2-methyl-1,2,3,4-tetrahydroisoquinolin-6-yl)isoxazole-3-carboxamide] | 7.00 to 7.70 | < 7.00
5 | CCNC(=O)c1noc(-c2cc(C)c(O)cc2O)c1-c1ccc2c(c1)CCN(C)C2 [Example 32, 5-(2,4-dihydroxyl-5-methylphenyl)-N-ethyl-4-(2-methyl-1,2,3,4-tetrahydroisoquinolin-6-yl)isoxazole-3-carboxamide] | > 7.70 | < 7.00
6 | CCNC(=O)c1noc(-c2cc(CC(C)C)c(O)cc2O)c1-c1ccc2c(c1)CCN(C)C2 [Example 33, 5-(5-isobutyl-2,4-dihydroxyl-phenyl)-N-ethyl-4-(2-methyl-1,2,3,4-tetrahydroisoquinolin-6-yl)isoxazole-3-carboxamide] | 7.00 to 7.70 | < 7.00
7 | CCNC(=O)c1noc(-c2cc(CC)c(O)cc2O)c1-c1ccc2c(c1)CCN(C)C2 [Example 34, 5-(5-ethyl-2,4-dihydroxyl-phenyl)-N-ethyl-4-(2-methyl-1,2,3,4-tetrahydroisoquinolin-6-yl)isoxazole-3-carboxamide] | > 7.70 | 7.00 to 7.70
8 | CCNC(=O)c1noc(-c2cc(C3CC3)c(O)cc2O)c1-c1ccc2c(c1)CCN(C)C2 [Example 35, 5-(5-cyclopropyl-2,4-dihydroxyl-phenyl)-N-ethyl-4-(2-methyl-1,2,3,4-tetrahydroisoquinolin-6-yl)isoxazole-3-carboxamide] | > 7.70 | 7.00 to 7.70
9 | CNC(=O)c1noc(-c2cc(C(C)C)c(O)cc2O)c1-c1ccc2c(c1)CCN(C)C2 [Example 36, 5-(2,4-dihydroxyl-5-isopropylphenyl)-N-methyl-4-(2-methyl-1,2,3,4-tetrahydroisoquinolin-6-yl)isoxazole-3-carboxamide] | > 7.70 | > 7.70
10 | CCCNC(=O)c1noc(-c2cc(C(C)C)c(O)cc2O)c1-c1ccc2c(c1)CCN(C)C2 [Example 37, 5-(2,4-dihydroxyl-5-isopropylphenyl)-N-propyl-4-(2-methyl-1,2,3,4-tetrahydroisoquinolin-6-yl)isoxazole-3-carboxamide] | 7.00 to 7.70 | 7.00 to 7.70
11 | CC(C)NC(=O)c1noc(-c2cc(C(C)C)c(O)cc2O)c1-c1ccc2c(c1)CCN(C)C2 [Example 38, 5-(2,4-dihydroxyl-5-isopropylphenyl)-N-isopropyl-4-(2-methyl-1,2,3,4-tetrahydroisoquinolin-6-yl)isoxazole-3-carboxamide] | 7.00 to 7.70 | 7.00 to 7.70
12 | CC(C)c1cc(-c2onc(C(=O)NCC(F)(F)F)c2-c2ccc3c(c2)CCN(C)C3)c(O)cc1O [Example 39, 5-(2,4-dihydroxyl-5-isopropylphenyl)-N-(2,2,2-trifluoroethyl)-4-(2-methyl-1,2,3,4-tetrahydroisoquinolin-6-yl)isoxazole-3-carboxamide] | 7.00 to 7.70 | 7.00 to 7.70
13 | CC(C)c1cc(-c2onc(C(=O)NCCF)c2-c2ccc3c(c2)CCN(C)C3)c(O)cc1O [Example 40, 5-(2,4-dihydroxyl-5-isopropylphenyl)-N-(2-fluoroethyl)-4-(2-methyl-1,2,3,4-tetrahydroisoquinolin-6-yl)isoxazole-3-carboxamide] | > 7.70 | > 7.70
14 | COCCNC(=O)c1noc(-c2cc(C(C)C)c(O)cc2O)c1-c1ccc2c(c1)CCN(C)C2 [Example 41, 5-(2,4-dihydroxyl-5-isopropylphenyl)-N-(2-methoxyethyl)-4-(2-methyl-1,2,3,4-tetrahydroisoquinolin-6-yl)isoxazole-3-carboxamide] | > 7.70 | 7.00 to 7.70
15 | COCCCNC(=O)c1noc(-c2cc(C(C)C)c(O)cc2O)c1-c1ccc2c(c1)CCN(C)C2 [Example 42, 5-(2,4-dihydroxyl-5-isopropylphenyl)-N-(3-methoxypropyl)-4-(2-methyl-1,2,3,4-tetrahydroisoquinolin-6-yl)isoxazole-3-carboxamide] | 7.00 to 7.70 | 7.00 to 7.70
16 | CC(C)c1cc(-c2onc(C(=O)NCCN(C)C)c2-c2ccc3c(c2)CCN(C)C3)c(O)cc1O [Example 43, 5-(2,4-dihydroxyl-5-isopropylphenyl)-N-[2-(dimethylamino)ethyl]-4-(2-methyl-1,2,3,4-tetrahydroisoquinolin-6-yl)isoxazole-3-carboxamide] | 7.00 to 7.70 | < 7.00
17 | CCNC(=O)c1noc(-c2cc(C(C)C)c(O)cc2O)c1-c1ccc2c(c1)CCN(CCO)C2 [Example 44, 5-(2,4-dihydroxyl-5-isopropylphenyl)-N-ethyl-4-(2-(2-hydroxyethyl)-1,2,3,4-tetrahydroisoquinolin-6-yl)isoxazole-3-carboxamide] | > 7.70 | 7.00 to 7.70
18 | CCNC(=O)c1noc(-c2cc(C(C)C)c(O)cc2O)c1-c1ccc2c(c1)CCN(CCOC)C2 [Example 45, 5-(2,4-dihydroxyl-5-isopropylphenyl)-N-ethyl-4-(2-(2-methoxyethyl)-1,2,3,4-tetrahydroisoquinolin-6-yl)isoxazole-3-carboxamide] | > 7.70 | 7.00 to 7.70
19 | CCNC(=O)c1noc(-c2cc(C(C)C)c(O)cc2O)c1-c1ccc2c(c1)CCN(CCF)C2 [Example 46, 5-(2,4-dihydroxyl-5-isopropylphenyl)-N-ethyl-4-(2-(2-fluoroethyl)-1,2,3,4-tetrahydroisoquinolin-6-yl)isoxazole-3-carboxamide] | 7.00 to 7.70 | > 7.70
20 | CCNC(=O)c1noc(-c2cc(C(C)C)c(O)cc2O)c1-c1ccc2c(c1)CCN(CCCOC)C2 [Example 47, 5-(2,4-dihydroxyl-5-isopropylphenyl)-N-ethyl-4-(2-(3-methoxypropyl)-1,2,3,4-tetrahydroisoquinolin-6-yl)isoxazole-3-carboxamide] | 7.00 to 7.70 | 7.00 to 7.70
21 | CCNC(=O)c1noc(-c2cc(C(C)C)c(O)cc2O)c1-c1ccc2c(c1)CCN(CCS(=O)(=O)CC)C2 [Example 48, 5-(2,4-dihydroxyl-5-isopropylphenyl)-N-ethyl-4-(2-(2-ethylsulfonyl)ethyl-1,2,3,4-tetrahydroisoquinolin-6-yl)isoxazole-3-carboxamide] | 7.00 to 7.70 | 7.00 to 7.70
22 | CCNC(=O)c1noc(-c2cc(C(C)C)c(O)cc2O)c1-c1ccc2c(c1)CCN(CC)C2 [Example 49, 5-(2,4-dihydroxyl-5-isopropylphenyl)-N-ethyl-4-(2-ethyl-1,2,3,4-tetrahydroisoquinolin-6-yl)isoxazole-3-carboxamide] | > 7.70 | 7.00 to 7.70
23 | CCCN1CCc2cc(-c3c(C(=O)NCC)noc3-c3cc(C(C)C)c(O)cc3O)ccc2C1 [Example 50, 5-(2,4-dihydroxyl-5-isopropylphenyl)-N-ethyl-4-(2-propyl-1,2,3,4-tetrahydroisoquinolin-6-yl)isoxazole-3-carboxamide] | 7.00 to 7.70 | > 7.70
